Experimental data reported in patent US20220282217A1, “COMPOSITIONS AND METHODS FOR PREPARING T CELL COMPOSITIONS AND USES THEREOF” (priority 2019, published 2022).
Where a SMILES comes first, the peptide text is derived from it.

Target: HLA-A02.01 (Homo sapiens, UniProt P04439, D140Y/D185E/D98H/E176V/E277Q/G131W/G231S/I119V/I121R/I166T/I218V/L300P/L318F/N151K/N90K/P208A/P217A/Q86G/Q94H/R138H/R169H/T345S)
Experiment: Class I MHC peptide binding affinity (displacement of radiolabeled reference peptide)
Conditions: allele A02.01; read-out: Observed Affinity (IC50; (nM))
Method: In brief, MHCI complexes were prepared and bound to radiolabeled reference peptides. Peptides were incubated at varying concentrations with these complexes for 2 days, and the amount of remaining radiolabeled peptide bound to […] was measured using size exclusion gel-filtration.

Compound | IC50 [nM]
CC[C@H](C)[C@H](NC(=O)[C@@H](NC(=O)[C@@H](NC(=O)[C@H](CC(C)C)NC(=O)[C@@H](NC(=O)[C@@H]1CCCN1C(=O)CNC(=O)CNC(=O)[C@@H](NC(=O)[C@@H](N)[C@@H](C)O)[C@@H](C)CC)[C@@H](C)O)C(C)C)[C@@H](C)CC)C(=O)O (H-TIGGPTLVII-OH; N-terminus and C-terminus assumed) | 10700
CC(C)C[C@H](NC(=O)[C@H](CC(C)C)NC(=O)[C@H](CC(=O)O)NC(=O)[C@H](CC(N)=O)NC(=O)[C@H](CC(C)C)NC(=O)[C@@H]1CCCN1C(=O)[C@@H](NC(=O)[C@@H](NC(=O)[C@@H](N)CC(N)=O)C(C)C)C(C)C)C(=O)O (H-NVVPLNDLL-OH; N-terminus and C-terminus assumed) | 2900
CC(C)C[C@H](NC(=O)[C@H](C)N)C(=O)N[C@@H](CCC(N)=O)C(=O)N1CCC[C@H]1C(=O)N[C@@H](CC(C)C)C(=O)N[C@@H](CCC(N)=O)C(=O)N1CCC[C@H]1C(=O)N[C@@H](Cc1c[nH]cn1)C(=O)N[C@@H](C)C(=O)O (H-ALQPLQPHA-OH; N-terminus and C-terminus assumed) | 604
CC(C)C[C@H](NC(=O)[C@H](CC(C)C)NC(=O)[C@H](CC(=O)O)NC(=O)[C@H](CO)NC(=O)[C@H](CC(C)C)NC(=O)[C@@H]1CCCN1C(=O)[C@@H](NC(=O)[C@@H](NC(=O)[C@@H](N)CC(N)=O)C(C)C)C(C)C)C(=O)O (H-NVVPLSDLL-OH; N-terminus and C-terminus assumed) | 916
CC[C@H](C)[C@H](NC(=O)[C@@H]1CCCN1C(=O)[C@H](CCCNC(=N)N)NC(=O)[C@H](CCCNC(=N)N)NC(=O)[C@H](CC(N)=O)NC(=O)[C@H](CCSC)NC(=O)[C@H](CO)NC(=O)CNC(=O)[C@H](CCSC)NC(=O)[C@@H](N)CS)C(=O)O (H-CMGSMNRRPI-OH; N-terminus and C-terminus assumed) | 1990
CC[C@H](C)[C@H](NC(=O)[C@@H]1CCCN1C(=O)[C@H](CCCNC(=N)N)NC(=O)[C@H](CCCNC(=N)N)NC(=O)[C@H](CC(N)=O)NC(=O)[C@H](CCSC)NC(=O)[C@@H](N)CO)C(=O)N[C@@H](CC(C)C)C(=O)N[C@H](C(=O)O)[C@@H](C)O | 3840

Further lines, results first:

IC50 [nM] | Compound
141 | CC(C)C[C@H](NC(=O)[C@H](C)N)C(=O)N[C@@H](CCC(=O)O)C(=O)N[C@@H](CCC(=O)O)C(=O)N[C@@H](CCCCN)C(=O)N[C@@H](CCCCN)C(=O)NCC(=O)N[C@@H](CC(N)=O)C(=O)N[C@@H](Cc1ccc(O)cc1)C(=O)N[C@H](C(=O)O)C(C)C (H-ALEEKKGNYV-OH; N-terminus and C-terminus assumed)
280 | CC(C)C[C@H](NC(=O)[C@H](CCCNC(=N)N)NC(=O)[C@@H](NC(=O)[C@H](CC(C)C)NC(=O)[C@H](CO)NC(=O)[C@@H](N)CCCCN)C(C)C)C(=O)N[C@@H](CO)C(=O)N[C@@H](CO)C(=O)N[C@@H](CS)C(=O)N[C@H](C(=O)O)C(C)C (H-KSLVRLSSCV-OH; N-terminus and C-terminus assumed)
50300 | CC(C)C[C@H](NC(=O)[C@H](C)NC(=O)[C@H](CCC(=O)O)NC(=O)[C@H](CCC(N)=O)NC(=O)[C@@H](NC(=O)[C@H](CC(=O)O)NC(=O)[C@H](Cc1ccccc1)NC(=O)[C@H](CCC(=O)O)NC(=O)[C@H](CCC(N)=O)NC(=O)[C@@H](N)CC(C)C)C(C)C)C(=O)O [LQEFDVQEAL] (H-LQEFDVQEAL-OH)
4730 | CC(C)C[C@H](NC(=O)[C@H](CO)NC(=O)CNC(=O)[C@H](CC(C)C)NC(=O)[C@H](CO)NC(=O)[C@H](CCCNC(=N)N)NC(=O)[C@H](Cc1c[nH]c2ccccc12)NC(=O)[C@H](CCC(N)=O)NC(=O)[C@@H](N)C(C)C)C(=O)O (H-VQWRSLGSL-OH; N-terminus and C-terminus assumed)
663 | CC(C)C[C@H](NC(=O)[C@H](Cc1ccccc1)NC(=O)[C@H](CO)NC(=O)[C@H](CC(C)C)NC(=O)[C@H](CS)NC(=O)[C@H](CO)NC(=O)[C@H](Cc1ccccc1)NC(=O)[C@H](CC(C)C)NC(=O)[C@H](CCCCN)NC(=O)[C@@H](N)Cc1ccccc1)C(=O)O (H-FKLFSCLSFL-OH; N-terminus and C-terminus assumed)
